The record followed here is US6670391B2, “Benzopyran derivative and antiallergic agent” (Dainippon Ink and Chemicals, Inc., priority 2001, dated 2003).

Like-named read-outs stand apart in the source and are kept apart here.

This test relates to male Hartley guinea pigs actively sensitized with egg-white albumin. Put plainly: Antiallergic Test due to Antigen-Induced Immediate Type Airway Reaction and Delayed Type Airway Reaction. In kind it is in vivo. Particulars: Cavia porcellus, po, 10 mg/kg orally once one hour before induction (prednisolone 10 mg/kg orally twice, 16 hours and 2 hours before). The method, then: Using an ultrasonic nebulizer (NE-U12, manufactured by OMRON Corporation), male Hartley guinea pigs (aged six weeks) were actively sensitized by consecutive 8-day inhalation of a 1 wt % physiological saline of egg-white albumin for 10 minutes a day. After one week passed since the final sensitization, an asthmatic disease state was induced by inhalation of a 2 wt % physiological saline of egg-white albumin for 5 minutes in the same manner. To inhibit the synthesis of endogenous steroid, metyrapone (10 mg/kg) was intravenously administered at 24 hours and one hour before the induction. To inhibit anaphylactic shock, pyrilamine (10 mg/kg) was intraperitoneally administered 30 minutes before inducing the asthmatic reaction.
After inducing the asthmatic reaction, the airway resistance (specific airway resistance Raw) was measured for 1 minute before inducing the asthmatic reaction, and 1 minute, 2 hours, 4 hours, 5 hours, 6 hours, 7 hours, 8 hours, and 23-24 hours after inducing the asthmatic reaction, using an airway resistance measuring apparatus (Pulmos-I, manufactured by M.I.P.S.). An average value of the airway resistance was determined, and an airway resistance increase ratio with respect to the value of the airway resistance before the induction was calculated by the following Equation 1.
Each of the test substances (10 mg/kg) listed in Table 1 was suspended in an aqueous 0.5% methyl cellulose solution, and the suspension was orally administered once one hour before inducing the asthmatic reaction. A positive control substance (prednisolone) was orally administered twice at a dosage of 10 mg/kg 16 hours and 2 hours before inducing the asthmatic reaction. The test was carried out on 8 animals per group.
According to this test procedure, a two-phase increase in airway resistance was observed immediately after inducing the asthmatic reaction and after 4-8 hours passed since inducing the asthmatic reaction. In the present invention, the former increase in airway resistance is referred to as the immediate type asthmatic reaction, while the latter increase in airway resistance is referred to as the delayed type asthmatic reaction. With respect to the evaluation of the drug, for the immediate type asthmatic reaction, the inhibition percentage with respect to the asthmatic reaction inhibiting medium administration group (referring to the group wherein a test drug is not administered after inducing the asthmatic reaction, hereinafter merely referred to as the “medium administration group”) was determined by Equation 2 using the airway resistance increase ratio after one minute gas passed since the induction as an index.
For the delayed type asthmatic reaction, the inhibition percentage with respect to the medium administration group was determined by the following Equation 3 using the area under the curve (AUC4-8) of the airway resistance increase ratio up to 4-8 hours after inducing the asthmatic reaction as an index. As an example, the relationship between the airway resistance increase ratio up to 4-8 hours after inducing the asthmatic reaction of the delayed type asthmatic reaction and time in the medium administration group, the prednisolone administration group, and the compound (216) administration group is shown in FIG. 1. As used herein, the area under the curve showing the relationship between the airway resistance increase ratio and time is (AUC4-8)
Airway resistance increase ratio (%)=(airway resistance after inducing the asthmatic airway resistance−airway resistance before inducing the asthmatic reaction)/(airway resistance before inducing the asthmatic reaction)×100
Inhibition (%)=(1−airway resistance increase ratio after one minute has passed since inducing the asthmatic reaction of the test substance administration group/airway resistance increase ratio after one minute has passed since inducing the asthmatic reaction of the medium administration group)×100 […]

[1] abbreviates: 1 min, airway resistance increase ratio one minute after induction vs medium administration group, read-out: Inhibition (%) against immediate type allergy.
Setting [2] is: AUC4-8 of airway resistance increase ratio 4-8 hours after induction vs medium administration group, read-out: Inhibition (%) against delayed type allergy.

Turning to `CCCCCCOc1c(O)c2cccc(OCCO)c2oc1=O` [Compound (311), 3-hexyloxy-4-hydroxy-8-(2-hydroxyethoxy)-2H-1-benzopyran-2-one], the inhibition in vivo at 10 mg/kg is, setting by setting: under setting [1], 11.9%; under setting [2], 55.4%.
In the same order, the values of `CCCCCCOc1c(O)c2cccc(OCC(O)CO)c2oc1=O` (stereo not shown) [Compound (349), 3-hexyloxy-4-hydroxy-8-(2,3-dihydroxypropyloxy)-2H-1-benzopyran-2-one] are 12.5% and 57.2%.
For `CCCCCCOc1c(O)c2cccc(OCC(=O)O)c2oc1=O` [Compound (368), 3-hexyloxy-4-hydroxy-8-hydroxycarbonylmethoxy-2H-1-benzopyran-2-one], the inhibition in vivo at 10 mg/kg is, setting by setting: under setting [1], 24.8%; under setting [2], 60%.
In the same order, the values of `CCCCCCCCOc1c(O)c2cccc(OCCC(=O)O)c2oc1=O` [Compound (390), 3-octyloxy-4-hydroxy-8-(2-hydroxycarbonylethoxy)-2H-1-benzopyran-2-one] are 29.7% and 61.1%.
Turning to `C[C@]12C=CC(=O)C=C1CC[C@@H]1[C@@H]2[C@@H](O)C[C@@]2(C)[C@H]1CC[C@]2(O)C(=O)CO` [Prednisolone, prednisolone, reference compound], the inhibition in vivo at 10 mg/kg under setting [1] is 29% and the inhibition in vivo at 10 mg/kg under setting [2] stood at 51.4%.
